Experimental findings from article PMC3144219, “Identification of Inhibitors against Mycobacterium tuberculosis Thiamin Phosphate Synthase, an Important Target for the Development of Anti-TB Drugs” (PLoS ONE, 2011) are described below.

In brackets after ≈: the same amount, converted by molar mass. Read-outs that look alike come from different tables or passages of the source. Bounds are passed on as bounds.

One series concerns M.smegmatis mc^2155. Description: MIC99 determination, broth macrodilution with CFU plating. It counts as cell-based. The note with it: for inhibition of M.smegmatis growth: at (up to) 750 µg/ml; for MIC99 for M.smegmatis: 24 hours, 99% inhibition of growth.
A further series deals with M.tuberculosis H37Rv. Description: MIC99 determination in broth culture with CFU plating. In kind it is cell-based. As to conditions: 7 days, 99% inhibition of growth; for MIC99: Mycobacterium tuberculosis, H37RV, 168 h.
The target in series [1] is T1, M.tuberculosis thiamin phosphate synthase (MtTPS) (Mycobacterium tuberculosis, UniProt P9WG75). The series is described as follows: biochemical. As to conditions: for inhibition at 100 µg/mL: read-out: percent inhibition of MtTPS activity.
T1 sequence (P9WG75 whole entry, looked up): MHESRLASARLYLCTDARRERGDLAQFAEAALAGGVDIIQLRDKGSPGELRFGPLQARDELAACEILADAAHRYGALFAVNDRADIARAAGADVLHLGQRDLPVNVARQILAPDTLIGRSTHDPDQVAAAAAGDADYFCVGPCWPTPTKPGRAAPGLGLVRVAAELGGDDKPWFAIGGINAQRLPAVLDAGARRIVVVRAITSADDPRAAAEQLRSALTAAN
The target in series [2] is T1, M.tuberculosis thiamin phosphate synthase (MtTPS).
Another series relates to Cc1ncsc1CCO. Description: purified protein, by the assay type. The note with it: pH 7.5; 37.0 °C.

On to `Cc1cc(O)c(C(C)C)cc1N=Cc1cc([N+](=O)[O-])ccc1O` [Compound 9, 4-{[(2-hydroxy-5-nitrophenyl)methylidene]amino}-5-methyl-2-(propan-2-yl)phenol], for which, in the series with M.smegmatis mc^2155, the “inhibition of M.smegmatis growth” value was found to be 32% inhibition at 750 µg/ml. Further, the MIC99 (as a rule, the lowest concentration that inhibits either 99% of growth or 99% of the strains tested, depending on the study) with M.tuberculosis H37Rv is 6 µg/mL (≈ 19.1 µM). In addition, in series [1], the IC50 was 108 µM and the inhibition (usually the drop in the measured response relative to a control, in per cent) at 100 µg/mL is more than 20%. Also, the “mode of inhibition of MtTPS” value in series [2] is reported as “competing with HMP-PP”.
For `O=C(Nc1cccc([N+](=O)[O-])c1)c1cc2ccccc2cc1O` [Compound 10, Naphtazol B], the “inhibition of M.smegmatis growth” value in the series on M.smegmatis mc^2155 is recorded as “No inhibition”. In addition, the “MIC99 for M.tuberculosis” value in the series on M.tuberculosis H37Rv came out at 750 µg/mL.
`CN1[C@@H]2CC[C@H]1CC(OC(c1ccccc1)c1ccccc1)C2.CS(=O)(=O)O` (stereo partly drawn) [Compound 11, 3-benzhydryloxy-8-methyl-8-azab icyclo [3.2.1]octane;methanesulfonic acid]: in the series with M.smegmatis mc^2155, the “MIC99 for M.smegmatis” value is 125 µg/mL. Moreover, the “MIC99 for M.tuberculosis” value in the series with M.tuberculosis H37Rv stood at 250 µg/mL.
For `O=C(Nc1cccc([N+](=O)[O-])c1)c1ccc2ccccc2c1O` [Compound 12, 1-hydroxy-(3-nitrophenyl) naphthalene-2-carboxamide], the “inhibition of M.smegmatis growth” value in the series with M.smegmatis mc^2155 is reported as 45% inhibition at 750 µg/ml. For the same molecule, in series [2], the IC50 stood at 100 µ/ml and the “percent inhibition of MtTPS activity” value is “greater than 20%”.
On to `c1ccc(CSc2nnc3c4ccccc4c4ccccc4c3n2)cc1` [Compound 33, 3-benzylsulfanyl phenanthro[9,10-e][1,2,4]triazine], for which the “MIC99 for M.smegmatis” value in the series with M.smegmatis mc^2155 turned out to be 150 µg/mL. Further, the “MIC99 for M.tuberculosis” value in the series on M.tuberculosis H37Rv was determined as 162.5 µg/mL. In addition, in series [2], the IC50 was determined as 100 µ/ml and the “percent inhibition of MtTPS activity” value is given as “greater than 20%”.
As to `CCN(CC)c1nc(Cl)nc(Nc2ccc3cc(-c4ccccc4)c(=O)oc3c2)n1` [Compound 35, Coumarin, 7-[[4-chloro-6-(diethylamino)-s-triazin-2-yl]amino]-3-phenyl-], the “inhibition of M.smegmatis growth” value with M.smegmatis mc^2155 is listed as “No inhibition”. Besides, the MIC99 with M.tuberculosis H37Rv came to 125 µg/mL (≈ 296 µM). In addition, in series [1], the IC50 is more than 237 µM and the inhibition at 100 µg/mL is more than 20%.
For “M.tuberculosis thiamin phosphate synthase (MtTPS) (Mycobacterium tuberculosis H37Rv)”, the Km – broadly, the concentration of substrate that gives half-maximal velocity – with Cc1ncsc1CCO is reported as 14 µM.
